Two compounds from patent US10172812B2, “Compounds and methods for treating muscular dystrophy and other disorders” (The Charlotte Mecklenburg Hospital Authority, priority 2017, dated 2019) can be followed below.

“Also recorded” adds a separate entry of the source.

What all share (type): in vivo, mouse
The test system of test [1] is FKRP-P448L mutant dystrophic mice. The test is described as follows: Muscle histology (H&E staining) in FKRP P448L mutant mice. Conditions: for fibrotic streaks in cardiac muscle / histology (H&E) / inflammation, degeneration and fibrotic tissue in skeletal muscle: 1 year of treatment, 5 day a week; for inflammation, degeneration and fibrotic tissue in muscle / muscle pathology (H&E): 6 month treatment, 5 days a week, 10 mg/kg, vs saline. As for the experimental part:
FIG. 1. […] C57 normal mouse muscles were used as controls. Saline, mice treated with saline as negative control. […] Hematoxylin and eosin (H&E) staining was used.
FIG. 4. […] H&E staining was used. The therapeutic effect is best seen with 10 mg/kg tamoxifen treatment. […] C57 normal mouse muscles were used as controls. P448-Saline, mice treated with saline as negative control.
(§1) This invention applies tamoxifen and raloxifene for clinical use in FKRP mutant dystrophic mouse models for the treatment of dystroglycanopathies, specifically those caused by mutations in the FKRP gene. Mutations in the FKRP gene cause muscular dystrophy with the lack of functional glycosylation of alpha-dystroglycan (α-DG) as the characteristic biochemical marker in the diseased tissues. Mouse models with the FKRP mutations present in patients show the same biochemical feature as patients' tissues, most prominently in muscles (Chan Y M, Hum Mol Genet 2010, 19(20): 3995-4006; Blaeser A, Hum Genet 2013, 132(8): 923-934). […] Histologically, the diseased muscles undergo continuous degeneration as indicated by the presence of degenerating muscle fibers, variation in fiber size, presence of centrally nucleated fibers (a result of regeneration which is the consequence of muscle damage), inflammatory cells and an increase in non-muscle fiber connective tissues (FIG. 1). […] The best results were obtained with 5-10 mg/kg tamoxifen and 50 mg/kg raloxifene, which would be equivalent to human equivalent dose (HED) of about 0.5 mg/kg for tamoxifen and 5 mg/kg for raloxifene. […] The improvement in muscle function and pathology is even greater after 1 year treatment.

Test [2] deals with glycosylated alpha-dystroglycan (α-DG). Description: Immunohistochemistry with monoclonal antibody IIH6 on muscles of treated FKRP mutant mice.
Description: FIG. 2. […] C57 normal mouse muscles were used as controls. Saline, mice treated with saline as negative control. The positive staining is seen surrounding the fiber membrane and a few revertant fibers are observed in the saline treated controls.
as §1

The subject of test [3] is FKRP-P448L mutant dystrophic mice. Description: Grip force measurement in FKRP P448L mutant mice. The source says: FIG. 3. […] C57 normal mice muscles as controls. Saline, mice treated with saline as negative control.
FIG. 5. […] Saline treated control, column 1; C57 normal control, column 8).
(§2) This invention applies tamoxifen and raloxifene for clinical use in FKRP mutant dystrophic mouse models for the treatment of dystroglycanopathies, specifically those caused by mutations in the FKRP gene. Mutations in the FKRP gene cause muscular dystrophy with the lack of functional glycosylation of alpha-dystroglycan (α-DG) as the characteristic biochemical marker in the diseased tissues. Mouse models with the FKRP mutations present in patients show the same biochemical feature as patients' tissues, most prominently in muscles (Chan Y M, Hum Mol Genet 2010, 19(20): 3995-4006; Blaeser A, Hum Genet 2013, 132(8): 923-934). […] Histologically, the diseased muscles undergo continuous degeneration as indicated by the presence of degenerating muscle fibers, variation in fiber size, presence of centrally nucleated fibers (a result of regeneration which is the consequence of muscle damage), inflammatory cells and an increase in non-muscle fiber connective tissues (FIG. 1). […] The best results were obtained with 5-10 mg/kg tamoxifen and 50 mg/kg raloxifene, which would be equivalent to human equivalent dose (HED) of about 0.5 mg/kg for tamoxifen and 5 mg/kg for raloxifene.

The test system is the same in test [4]. Description: Treadmill exercise in FKRP P448L mutant mice. Conditions: 1 year treatment, vs saline-treated cohort.
Description: FIG. 6. […] Saline treated control, column 1; C57 normal control, column 8).
as §2

The test system is the same in test [5]. Description: Overall therapeutic effect (muscle pathology and function) on feeding FKRP-P448L mutant mice. Conditions: for dose giving the best results / muscle pathology and function: feeding 5 days a week; for dose relation of the therapeutic effects: tamoxifen 2, 5, 10, 50 mg/kg/day, raloxifene 10, 50, 100 mg/kg/day.
Description: as §1

The mark [6] stands for this setting: 6 months of treatment, 5 days a week, 10 mg/kg; vs saline.
[7] abbreviates: 2 mg/kg/day, 1 year treatment; vs saline-treated cohort.
Setting [8] is: 50 mg/kg/day, 1 year treatment; vs saline-treated cohort.

As to `CC/C(=C(\c1ccccc1)c1ccc(OCCN(C)C)cc1)c1ccccc1` [tamoxifen], in test [1] (10 mg/kg/day), the “fibrotic streaks in cardiac muscle” value is “Reduced fibrotic streaks”; the “histology (H&E)” value is reported as “Improvement in histology”; the “inflammation, degeneration and fibrotic tissue in skeletal muscle” value is given as “Reduction”. In test [1], the “inflammation, degeneration and fibrotic tissue in muscle” value is listed as “Reduction”; the “muscle pathology (H&E)” value was “significantly improve muscle pathology”. Further, in test [2] (6 months of treatment, 5 days a week, 10 mg/kg, vs saline), the “levels of glycosylated alpha-dystroglycan (α-DG) detected with IIH6” value is “enhance the levels of glycosylated alpha-dystroglycan; also recorded: enhanced expression of alpha-DG”. For the same compound, in test [2] (setting [6]), the “number of IIH6 positive fibers” value is “clearly increased”. In test [3] (setting [7]), the “grip force measurement (other than hindlimb)” value was “Significant improvement” and the “grip force measurement, hindlimb” value was “did not reach significance”. Besides, the grip force measurement result in test [3] (10 mg/kg/day, 1 year treatment; vs saline-treated cohort) is “Significant improvement”. Further, in test [3] (setting [8]), the grip force measurement result was “Significant improvement”. The “muscle function by grip force measurement” value in test [3] (6 months of treatment, 5 days a week, 10 mg/kg; vs saline; 10 mg/kg) is recorded as “improved muscle function”. Moreover, in test [4] (2 mg/kg/day), the treadmill running distance entry is “Significant improvement” and the treadmill running time entry was “did not reach significance”. For the same compound, in test [4] (10 mg/kg/day), the treadmill running distance entry was “Significant improvement” and the treadmill running time result is listed as “Significant improvement”. Besides, in test [4] (50 mg/kg/day), the treadmill running distance result is “Significant improvement” and the treadmill running time result is listed as “Significant improvement”. Besides, in test [5], the “dose giving the best results” value is 5 to 10 mg/kg; the “muscle pathology and function” value is “significantly improved muscle pathology and function”; the “dose relation of the therapeutic effects” value is “dose-related with increasing efficacy”.
Take `O=C(c1ccc(OCCN2CCCCC2)cc1)c1c(-c2ccc(O)cc2)sc2cc(O)ccc12` [raloxifene]: in test [1] (50 mg/kg/day), the “fibrotic streaks in cardiac muscle” value was “Reduced fibrotic streaks”; the “histology (H&E)” value was “Improvement in histology”; the “inflammation, degeneration and fibrotic tissue in skeletal muscle” value is on record as “Reduction”. Moreover, in test [1], the “inflammation, degeneration and fibrotic tissue in muscle” value is “Reduction”; the “muscle pathology (H&E)” value is “significantly improve muscle pathology”. Further, in test [2] (setting [6]), the “levels of glycosylated alpha-dystroglycan (α-DG) detected with IIH6” value is reported as “enhance the levels of glycosylated alpha-dystroglycan” and the “number of IIH6 positive fibers” value is given as “clearly increased”. In addition, in test [3] (setting [8]), the grip force measurement result was “Significant improvement”. The grip force measurement result in test [3] (100 mg/kg/day, 1 year treatment; vs saline-treated cohort) is “Significant improvement”. Also, the “muscle function by grip force measurement” value in test [3] (setting [6]) was “improve muscle function”. For the same compound, in test [4] (50 mg/kg/day), the treadmill running distance result was “Significant improvement” and the treadmill running time result is “Significant improvement”. In test [4] (100 mg/kg/day), the treadmill running distance entry is recorded as “Significant improvement” and the treadmill running time result is “Significant improvement”. Besides, in test [5], the “dose giving the best results” value turned out to be 50 mg/kg; the “muscle pathology and function” value is “significantly improved muscle pathology and function”; the “dose relation of the therapeutic effects” value is listed as “dose-related with increasing efficacy”.
